Measured values taken from PMC11193793 (Scientific Reports, 2024).
Where two headings read alike, the source gives them in different places.

Tests used:
ovine COX-1 = target: T1, ovine COX-1 (Ovis aries, UniProt P05979); assay: biochemical
T1 sequence (P05979 25-600): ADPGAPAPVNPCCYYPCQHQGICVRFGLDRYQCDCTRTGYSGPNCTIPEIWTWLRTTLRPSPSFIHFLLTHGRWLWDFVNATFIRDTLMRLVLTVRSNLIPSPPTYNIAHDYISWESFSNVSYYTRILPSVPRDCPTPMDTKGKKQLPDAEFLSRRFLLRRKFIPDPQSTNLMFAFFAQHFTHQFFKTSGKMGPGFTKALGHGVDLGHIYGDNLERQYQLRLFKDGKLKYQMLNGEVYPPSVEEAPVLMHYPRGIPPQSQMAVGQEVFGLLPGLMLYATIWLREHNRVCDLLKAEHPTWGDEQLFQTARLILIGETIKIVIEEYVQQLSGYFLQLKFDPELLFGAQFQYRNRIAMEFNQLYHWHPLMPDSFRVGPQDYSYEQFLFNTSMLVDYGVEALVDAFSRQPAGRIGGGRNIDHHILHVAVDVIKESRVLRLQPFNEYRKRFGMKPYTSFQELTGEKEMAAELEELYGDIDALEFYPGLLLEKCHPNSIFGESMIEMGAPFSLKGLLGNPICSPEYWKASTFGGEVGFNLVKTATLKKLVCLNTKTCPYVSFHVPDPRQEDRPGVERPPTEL
Description: (§1) The full method is provided in the Supplementary materials.
(§2) Serial dilutions (100, 10, 1, 0.1, and 0.01 µg/mL) of the F. solani extract and the isolated metabolites were prepared and solvated in DMSO, then estimated for their abilities to inhibit the synthesis of prostaglandin using the kits for screening test for COX inhibitors (BioVision, Inc., USA, Mountain View, Catalog # K548-100 and Catalog # K547-100, for COX- […]
(§3) The investigational methodology was carried out following the provider’s recommendations. Arachidonic acid is being converted into prostaglandin (PGH2) by the cyclooxygenase enzyme (COX). During the reduction, the PGF2α formed in PGH2 via stannous chloride was evaluated via ELISA (enzyme-linked immunoassay). This bioassay is based on the competition among an antibody; PGspecific and a cholinesterase conjugate; PG-acetyl. The developed (antibody-PG) was combined with an acetylcholinesterase substrate included in Ellman's reagent. Each sample (20 µL) was used, (10 µL) heme, and (10 µL) enzyme, were combined to the reaction buffer solution (160 µL) formed of (2 mM phenol and 5 mM ethylenediamine tetra acetate (EDTA) in 0.1 M Tris-HCl, pH 8), followed by incubation of the mixture in a water bath at 37 °C for 10 min. Subsequently, starting the COX reaction was done by adding 10 µL of arachidonic acid, with a final concentration of […], to the reaction mixture.
(§4) Later, the COX reactions were ended after 2 min by adding saturated stannous chloride (30 µL), then inoculate for 5 min at room temperature. Afterwards, the PGF2α level was measured using ELISA. Subsequent move to a 96-well plate, inoculate the samples at room temperature for 18 h, then wash the plate to eliminate any residual reagents, followed by the addition of Ellman’s reagent (200 µL) which contains an acetylcholinesterase substrate, and incubation at room temperature for 60 to 90 min. A spectrophotometer with a microplate reader at 410 nm was used to measure the produced color at 410 […]
(§5) The data mean values from three measurements were used to calculate IC50 values. […]

recombinant human COX-2 = target: T2, recombinant human COX-2 (Homo sapiens, UniProt P35354); assay: biochemical; details: for Selectivity index (SI): COX-2 selectivity from COX-1 and COX-2 IC50
T2 sequence (P35354 18-604): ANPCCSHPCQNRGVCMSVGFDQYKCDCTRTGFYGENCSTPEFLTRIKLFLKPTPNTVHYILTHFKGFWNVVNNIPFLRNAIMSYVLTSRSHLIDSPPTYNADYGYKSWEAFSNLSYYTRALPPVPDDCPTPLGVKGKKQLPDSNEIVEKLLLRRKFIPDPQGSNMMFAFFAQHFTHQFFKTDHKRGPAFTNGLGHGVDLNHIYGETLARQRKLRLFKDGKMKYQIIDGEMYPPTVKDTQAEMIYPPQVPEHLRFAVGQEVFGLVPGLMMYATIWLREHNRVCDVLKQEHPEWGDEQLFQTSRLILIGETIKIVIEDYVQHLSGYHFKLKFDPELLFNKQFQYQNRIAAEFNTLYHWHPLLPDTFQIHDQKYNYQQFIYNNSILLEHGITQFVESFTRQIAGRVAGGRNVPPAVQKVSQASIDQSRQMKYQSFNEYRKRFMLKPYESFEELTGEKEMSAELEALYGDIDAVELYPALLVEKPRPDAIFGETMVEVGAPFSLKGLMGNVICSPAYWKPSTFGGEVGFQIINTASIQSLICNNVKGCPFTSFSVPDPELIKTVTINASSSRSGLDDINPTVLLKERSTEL
Description: as §1, §2, §3, §4, §5

tyrosinase enzyme = assay: Tyrosinase inhibitory assay (L-DOPA substrate, BioVision kit); type: biochemical; details: mean ± SEM, triplicate
Source text: The anti-tyrosinase capacities of the F. solani extract together with the six isolated metabolites were investigated via evaluating their inhibitory activities against tyrosinase enzyme. The full method is provided in the Supplementary materials. […]
Tyrosinase inhibitory assay
The anti-tyrosinase capacities of the F. solani extract together with the six isolated metabolites were investigated via evaluating their inhibitory activities against tyrosinase enzyme using the kits for screening test of tyrosinase enzyme inhibition (BioVision, Inc., USA, Mountain View, Catalog # K575-100).
First, all samples were dissolved using DMSO (reference drug, EtOAc extract and the isolated compounds) preparing different concentrations. The assay of tyrosinase inhibition was done as previously reported 3. The mixture of assay composed of test solution (1900 μL) in (0.1 M) buffer phosphate pH 6.8 and freshly prepared enzyme solution (100 μL) which is composed of 15 U/mL in (0.1 M) buffer phosphate pH 6.8. The 30 min. of room temperature after pre-incubation, the reaction was started by adding substrate solution (1000 μL) which composed of L-DOPA (1.5 Mm) in buffer phosphate (0.1 M) pH 6.8. After 7 minutes of room temperature incubation, the mixture of the assay was analyzed for absorbance at […]
510 nm. […] The activity of tyrosinase inhibition
(The activity of the enzyme together with the tested samples). The mean values of the data from three measurements were used to calculate IC50 values.

[1] = mean ± SEM, triplicate, read-out: IC50 COX-2
[2] = mean ± SEM, triplicate, read-out: IC50 COX-1

For `OCCc1ccc(O)cc1` [Tyrosol (3), tyrosol], the IC50 (ovine COX-1) was 23.9 ± 0.38 µM, the IC50 (recombinant human COX-2) was 5.31 ± 0.15 µM and the “Selectivity index (SI)” value (recombinant human COX-2) was 4.49. For the same compound, the IC50 (tyrosinase enzyme) was 11.3 ± 0.24 µM.
In the case of `CCCCc1ccc(C(=O)O)nc1` [Fusaric acid (6), fusaric acid], the IC50 (ovine COX-1) is reported as 3.86 ± 0.05 µM, the “Selectivity index (SI)” value (recombinant human COX-2) is reported as 0.8 and the IC50 (recombinant human COX-2; [1]) is reported as 4.81 ± 0.14 µM. It also gave an IC50 (tyrosinase enzyme) of 13.4 ± 0.27 µM.
With `O=C(O)CCCCCCCC(=O)O` [Azelaic acid (4), azelaic acid] the IC50 (ovine COX-1; [2]) was 11.6 ± 0.29 µM, the “Selectivity index (SI)” value (recombinant human COX-2) was 5.24 and the IC50 (recombinant human COX-2; [1]) was 2.21 ± 0.06 µM. It also gave an IC50 (tyrosinase enzyme) of 8.75 ± 0.18 µM.
In the case of `O=C(O)c1ccc(O)cc1` [4-Hydroxybenzoic acid (2), 4-hydroxybenzoic acid], the IC50 (ovine COX-1; [2]) is reported as 44.5 ± 0.92 µM, the IC50 (recombinant human COX-2; [1]) is reported as 28.4 ± 0.76 µM and the IC50 (tyrosinase enzyme) is reported as 25.4 ± 0.53 µM.
With `O=Cc1ccc(O)cc1` [4-Hydroxybenzaldehyde (1), 4-hydroxybenzaldehyde] the IC50 (ovine COX-1; [2]) was 25.7 ± 0.55 µM, the “Selectivity index (SI)” value (recombinant human COX-2) was 2.9 and the IC50 (recombinant human COX-2; [1]) was 8.87 ± 0.26 µM. For the same compound, the IC50 (tyrosinase enzyme; listed as 4-hydroxybenzaldehyde) was > 50 µM and the IC50 (tyrosinase enzyme; listed as 4-hydroxybenzaldehyde (1)) was 70.6 ± 1.49 µM.
Compound `O=C(O)CC(O)C(=O)O` (stereo not drawn) [Malic acid (5), malic acid] has an IC50 (ovine COX-1) of 51 ± 0.86 µM, an IC50 (recombinant human COX-2; [1]) of 10.4 ± 0.3 µM and an IC50 (tyrosinase enzyme) of 87.5 ± 1.84 µM. For the same compound, the IC50 (tyrosinase enzyme; listed as malic acid) was > 50 µM.
